# Reference: patent US7718651B2, “Inhibitors of FtsZ and uses thereof” (priority 2002, dated 2010)
# System: M. tuberculosis H37Rv
# Experiment: microbe, parasite or virus in culture
# Assay type: cell-based
# Conditions: not given
row,SMILES,% Inh [%]
1,CCOC(=O)Nc1cc2c(c(N)n1)N=C(c1ccccc1)[C@H](C)N2 [Compound A108],45
2,CCOC(=O)Nc1cc2c(c(N)n1)N=C(c1ccccc1)[C@H](C)N2 [Compound A129],28

# Same assay, conditions: M. tuberculosis H37Rv, screen concentration 12.5 g/ml [sic], Table 8
row,SMILES,% Inh [%]
1,CCOC(=O)Nc1cc(NC(C)C(=O)Cc2ccccc2)c([N+](=O)[O-])c(N)n1 (stereo not drawn) [Compound A313],−21
2,CCOC(=O)Nc1cc2c(c(N)n1)N=C(c1ccc(O)cc1)[C@H](C)N2 [Compound A170],7
3,CCOC(=O)Nc1cc(N)c([N+](=O)[O-])c(N)n1 [Compound A162],8
4,CCOC(=O)Nc1nc(NC(=O)OCC)c([N+](=O)[O-])c(Cl)c1[N+](=O)[O-] [Compound A202],0
5,CCOC(=O)Nc1cc(NCC(=O)c2ccc(OC)cc2)c([N+](=O)[O-])c(N)n1 [Compound A237],0
6,CCOC(=O)Nc1cc2c(c(N)n1)N=C(c1ccc(F)cc1)CN2 [Compound A60],87
7,CCOC(=O)Nc1cc(NCC(O)CN(C)c2ccccc2)c2nc(O)[nH]c2n1 (stereo not drawn) [Compound A63],86
8,CCOC(=O)Nc1cc(NC(C)CCCN(CC)CC)c2ncc(C)nc2n1 (stereo not drawn) [Compound A254],0
9,Br.CCOC(=O)Nc1cc(N)c([N+](=O)[O-])c(NCC(C)=O)n1 [Compound A75],72
10,CCOC(=O)Nc1cc(NCCCCc2ccccc2)c2nc[nH]c2n1 [Compound A86],65
11,CCOC(=O)Nc1cc2[nH]c(-c3ccccc3)nc2c(N)n1 [Compound A125],30
12,CCOC(=O)Nc1cc(NC(C)C(=O)COc2ccccc2)c([N+](=O)[O-])c(N)n1 (stereo not drawn) [Compound A133],23
13,CCOC(=O)Nc1cc(NC(c2ccccc2)c2ccccc2)c2ncc(O)nc2n1 [Compound A61],87
14,CCOC(=O)Nc1cc(NC(c2ccccc2)c2ccccc2)c2ncc(=O)[nH]c2n1 [Compound A270],0
15,CCOC(=O)Nc1cc(NCc2ccc(S(N)(=O)=O)cc2)c([N+](=O)[O-])c(N)n1 [Compound A244],0
16,CCOC(=O)Nc1cc2c(c(N)n1)N=C(CN(C)c1ccccc1)CN2 [Compound A45],93
17,CCOC(=O)Nc1cc(N/N=C/c2ccccc2)c2nc(SCc3ccccc3)[nH]c2n1 [Compound A57],89
18,CCOC(=O)Nc1cc(N[C@@H](C)C(=O)c2ccc(O)cc2)c([N+](=O)[O-])c(N)n1 [Compound A304],−2
19,CCOC(=O)Nc1cc2[nH]c(-c3cc(OC)c(OC)c(OC)c3)nc2c(N(CCc2ccccc2)Cc2ccccc2)n1 [Compound A28],97
20,CCOC(=O)Nc1cc2c(c(N)n1)N=C(c1ccc(OC)cc1)CO2 [Compound A192],0
21,CCOC(=O)Nc1cc(NC(C)/C(=N/O)c2ccc(O)cc2)c([N+](=O)[O-])c(N)n1 (stereo not drawn) [Compound A149],14
22,CCOC(=O)Nc1cc(NC(c2ccccc2)c2ccccc2)c2nc[nH]c2n1.Cl [Compound A280],0
23,CCOC(=O)Nc1cc2[nH]c(-c3ccccc3)nc2c(Cl)n1 [Compound A219],0
24,CCOC(=O)Nc1cc2c(c(N)n1)N=C(c1ccc(OC)cc1)CS2 [Compound A158],10
25,CCOC(=O)Nc1cc(NC(C)C(=O)c2ccc(O)cc2)c([N+](=O)[O-])c(N)n1 (stereo not drawn) [Compound A183],2
26,CCOC(=O)Nc1cc(N)c2ncc(-c3cc(OC)c(OC)c(OC)c3)nc2n1 [Compound A147],15
27,CCOC(=O)Nc1cc(N)c([N+](=O)[O-])c(NC(c2ccccc2)c2ccccc2)n1 [Compound A142],18
28,CCOC(=O)Nc1cc(Nc2ccc(Cl)cc2)c2ncc(C)nc2n1 [Compound A260],0

row,SMILES,% Inh [%]
1,CCOC(=O)Nc1cc2c(c(/N=C/N(C)C)n1)N=C(c1ccccc1)CO2 [Compound A230],0
2,CCOC(=O)Nc1ccc(/N=C/c2ccccc2)cn1 [Compound A223],0
3,CCOC(=O)Nc1cc2[nH]c(-c3ccc(Oc4ccccc4)cc3)nc2c(N(CCc2ccccc2)Cc2ccccc2)n1 [Compound A15],98
4,CCOC(=O)Nc1cc2nc(-c3ccccc3)c(-c3ccccc3)nc2c(N)n1 [Compound A49],92
5,CCOC(=O)Nc1cc(NC(C)C(O)Cc2ccccc2)c([N+](=O)[O-])c(N)n1 (stereo not drawn) [Compound A104],51
6,CCOC(=O)Nc1cc2[nH]c(-c3ccc(OC)cc3)nc2c(N(CCc2ccccc2)Cc2ccccc2)n1 [Compound A16],98
7,CCCCC(Nc1cc(NC(=O)OCC)nc(N)c1[N+](=O)[O-])C(C)=O (stereo not drawn) [Compound A67],81
8,CCOC(=O)Nc1cc(NCCC(=O)c2ccccc2)c([N+](=O)[O-])c(N)n1 [Compound A308],−8
9,CCOC(=O)Nc1cc2c(nc(SCc3ccccc3)n2N)c(N)n1 [Compound A120],34
10,CCOC(=O)Nc1cc(NC(C)[C@H](O)c2ccccc2)c(N)c(N)n1 (stereo partly drawn) [Compound A312],−19
11,CCOC(=O)Nc1cc(NCCc2ccc(S(=O)(=O)N(CC)CC)cc2)c2ncc(C)nc2n1 [Compound A255],0
12,CCOC(=O)Nc1cc(Nc2ccccc2)c([N+](=O)[O-])c(N)n1 [Compound A59],88
13,CCOC(=O)Nc1cc(NC(c2ccccc2)c2ccccc2)c2ncc(-c3ccc(Cl)cc3)nc2n1 [Compound A261],0
14,CCOC(=O)Nc1cc(Nc2ccc(Cl)cc2)c2nc(-c3ccc(Cl)cc3)c(-c3ccc(Cl)cc3)nc2n1 [Compound A121],33
15,CCOC(=O)Nc1cc(NC(c2ccccc2)c2ccccc2)c([N+](=O)[O-])c(NC(=O)OCC)n1 [Compound A175],5
16,CCOC(=O)Nc1cc2c(c(NC(c3ccccc3)c3ccccc3)n1)N=C(c1ccccc1)C1NC=CN21 (stereo not drawn) [Compound A311],−16
17,CCOC(=O)Nc1cc2c(c(NC(=O)CBr)n1)N=C(c1ccccc1)CO2 [Compound A229],0
18,CCOC(=O)Nc1cc(N[C@H](C)C(=O)c2ccccc2)c([N+](=O)[O-])c(N)n1 [Compound A198],0
19,CCOC(=O)Nc1cc(NCCC(O)c2ccccc2)c([N+](=O)[O-])c(N)n1 (stereo not drawn) [Compound A115],41
20,CCOC(=O)Nc1cc(N)c2nc(CN(C)c3ccccc3)cnc2n1 [Compound A273],0
21,CCOC(=O)Nc1cc(NCC(=O)c2ccc(C(F)(F)F)cc2)c([N+](=O)[O-])c(N)n1 [Compound A222],0
22,CCOC(=O)Nc1nc(NC(=O)OCC)c([N+](=O)[O-])c(NC(C)/C(=N\O)c2ccccc2)c1[N+](=O)[O-] (stereo not drawn) [Compound A150],14
23,CCOC(=O)Nc1cc(N/N=C/c2ccccc2)c2nc[nH]c2n1 [Compound A48],92
24,CCOC(=O)Nc1cc(NC(c2ccccc2)c2ccccc2)c2nc(-c3ccccc3)c(-c3ccccc3)nc2n1 [Compound A119],36
25,CCOC(=O)Nc1cc(NC/C(=N/O)c2ccc(C(F)(F)F)cc2)c([N+](=O)[O-])c(N)n1 [Compound A221],0
26,CCOC(=O)Nc1cc2c(c(N)n1)N=C(c1ccc(C)c(C)c1)CN2 [Compound A88],64
27,CCOC(=O)Nc1cc(NCC(=O)CCc2ccccc2)c([N+](=O)[O-])c(N)n1 [Compound A135],22
